The values below come from US5658885A, “Amidino and guanidino substituted boronic acid inhibitors of trypsin-like enzymes” (The DuPont Merck Pharmaceutical Company, priority 1994, dated 1997).

Assay [1] concerns the target T1, human thrombin (Homo sapiens, UniProt P00734).
T1 construct: 0.2-0.5 nM human thrombin or human factor Xa; purchased Enzyme Research Laboratories, South Bend, Ind
The experiment in a line: Inhibition of thrombin hydrolysis of chromogenic substrate S2238 (Ki). The format is biochemical. The following applies: S2238, pH 7.5. Here is the method:
(§1) The effectiveness of compounds of the present invention as inhibitors of blood coagulation proteases was determined using purified human proteases and synthetic substrates following procedures similar to those described in Kettner et al. (1990).
(§2) For these assays, the rate of enzymatic (thrombin, Factor Xa, and Factor VIIa) hydrolysis of chromogenic substrates (S2238 (H-D-Phe-Pip-Arg-pNA), S2222, and S2288, respectively; Kabi Pharmacia, Franklin, Ohio) was measured both in the absence and presence of compounds of the present invention. […] A decrease in the rate of absorbance change at 405 nm in the presence of inhibitor is indicative of enzyme inhibition. The results of this assay are expressed as inhibitory constant, Ki.
(§3) Thrombin and Xa determinations were made in 0.10M sodium phosphate buffer, pH 7.5, containing 0.20M NaCl, and 0.5% PEG 8000. VIIa determinations were made in 0.05M tris buffer, pH 7.6, containing 0.10M NaCl, 4 mM CaCl2, and 0.1% bovine serum albumin.
(§4) Reactions were allowed to go for 30 minutes and the velocities (rate of absorbance change vs time) were measured in the time frame of 25-30 minutes. The following relationship was used to calculate Ki values. [formula] where: vo is the velocity of the control in the absence of inhibitor;
(§5) vs is the velocity in the presence of inhibitor;
(§6) I is the concentration of inhibitor;
(§7) Ki is the dissociation constant of the enzyme: inhibitor complex;
(§8) S is the concentration of substrate;
(§9) Km is the Michaelis constant.

In assay [2] the target is T2, human factor Xa (Homo sapiens, UniProt P00742).
T2 construct: 0.2-0.5 nM human thrombin or human factor Xa; purchased Enzyme Research Laboratories, South Bend, Ind
The assay is described as follows: Inhibition of Factor Xa hydrolysis of chromogenic substrate S2222 (Ki). Particulars: S2222, pH 7.5. The format is biochemical. How it is done:
as §1, §2, §3, §4, §5, §6, §7, §8, §9

The target in assay [3] is T3, human factor VIIa (Homo sapiens, UniProt P08709).
T3 construct: 50 nM human factor VIIa (BiosPacific, Emeryville, Calif.); purchased BiosPacific, Emeryville, Calif
T3 sequence (P08709 213-466 limits assumed): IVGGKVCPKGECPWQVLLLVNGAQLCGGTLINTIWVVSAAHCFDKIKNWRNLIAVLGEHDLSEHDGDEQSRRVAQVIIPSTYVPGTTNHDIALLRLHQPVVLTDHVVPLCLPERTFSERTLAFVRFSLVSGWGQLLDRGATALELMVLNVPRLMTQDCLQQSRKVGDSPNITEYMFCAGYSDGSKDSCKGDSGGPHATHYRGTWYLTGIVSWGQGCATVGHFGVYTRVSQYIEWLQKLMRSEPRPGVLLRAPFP
T3 sequence (P08709 61-212 limits assumed): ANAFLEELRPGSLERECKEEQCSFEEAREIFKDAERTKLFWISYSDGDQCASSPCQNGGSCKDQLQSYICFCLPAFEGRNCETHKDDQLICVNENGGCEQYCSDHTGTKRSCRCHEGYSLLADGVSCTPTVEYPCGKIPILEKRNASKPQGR
The experiment in a line: Inhibition of Factor VIIa hydrolysis of chromogenic substrate S2288 (Ki). The class given is biochemical. Particulars: S2288, pH 7.6. How it is done:
as §1, §2, §3, §4, §5, §6, §7, §8, §9

In assay [4] the test system is activated partial thromboplastin time. The assay is described as follows: Anticoagulant effect in vivo: prolongation of activated partial thromboplastin time of blood samples after dosing. More on the design: species or system conscious dogs or anesthetized rats. Particulars: 0.5 to 10 mg/kg, dogs or rats. Here is the method:
Arterial or venous blood was withdrawn by syringe and mixed with 1/10 volume 3.2% sodium citrate. Plasma was obtained after centrifugation and a standard clinical activated partial thromboplastin time (APTT reagent, Sigma Chemical Co., St. Louis, Mo.) determined at 37° C. in a fibrometer.

Structures can show the parent of a compound that is named as a salt.

As a reminder, the Ki is the dissociation constant of the complex between target and ligand, obtained from inhibition or displacement.

T2 sequence (P00742 235-488 limits assumed): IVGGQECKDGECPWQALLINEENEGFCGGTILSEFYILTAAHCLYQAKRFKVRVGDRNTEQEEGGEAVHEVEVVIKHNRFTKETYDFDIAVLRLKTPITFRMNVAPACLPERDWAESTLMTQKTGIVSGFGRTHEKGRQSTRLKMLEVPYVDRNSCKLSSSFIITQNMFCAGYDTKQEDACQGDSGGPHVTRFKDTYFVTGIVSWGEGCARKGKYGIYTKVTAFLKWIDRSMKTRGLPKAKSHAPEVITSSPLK
T2 sequence (P00742 41-179 limits assumed): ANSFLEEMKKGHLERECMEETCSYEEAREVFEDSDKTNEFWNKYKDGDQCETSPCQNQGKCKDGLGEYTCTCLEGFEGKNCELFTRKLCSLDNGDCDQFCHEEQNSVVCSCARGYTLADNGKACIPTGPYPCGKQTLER

On to `CN(C)C(Cc1ccccc1)C(=O)N1CCCC1C(=O)NC(Cc1cccc(C#N)c1)B(O)O` (single isomer, unassigned; isomer i) [Example 20, N,N-(CH3)2 --(D)Phe--Pro--boroPhe--(m-CN)--OH.HCl (ISOMER I)], for which the inhibition constant (Ki) in assay [1] and in assay [2] was below 500 nM in each case.
`CC(=O)N[C@H](Cc1ccccc1)C(=O)N1CCC[C@H]1C(=O)N[C@@H](Cc1cccc(C#N)c1)B(O)O` [Example 23, Ac--(D)Phe--Pro--boroPhe--(m-CN)--OH.HCl]: the results for the inhibition constant Ki in assay [3], in assay [1] and in assay [2] were below 500 nM, below 500 nM and below 50000 nM, respectively.
For the molecule `CNC(Cc1ccccc1)C(=O)N1CCCC1C(=O)NC(Cc1cccc(C#N)c1)B1OC2CC3CC(C3(C)C)C2(C)O1` (stereo not shown) [Example 25, N--CH3 --(D)Phe--Pro--boroPhe(m-CN)--C10 H16.HCl], the inhibition constant Ki in assay [1] and in assay [2] was below 500 nM throughout.
For the molecule `CC(C)(C)OC(=O)N[C@H](Cc1cccnc1)C(=O)N1CCCC1C(=O)NC(Cc1cccc(C#N)c1)B1OC2CC3CC(C3(C)C)C2(C)O1` (stereo partly shown) [Example 28, Boc--(D)3-Pyridylalanine-Pro--boroPhe--(m-CN)-C10 H16], the Ki in assay [1] and in assay [2] was below 500 nM throughout.
For `CC1(C)C2CC3OB(C(Cc4cccc(C#N)c4)NC(=O)C4CCCN4C(=O)C(N)Cc4cccnc4)OC3(C)C1C2` (stereo not shown) [Example 30, H--(D)3-Pyridylalanine-Pro--boroPhe(m-CN)--C10 H16.HCl], the inhibition constant (Ki) in assay [1] and in assay [2] was below 500 nM each time.
With `CC1(C)C2CC3OB(C(Cc4cccc(C#N)c4)NC(=O)C4CCCN4C(=O)[C@@H](Cc4cccnc4)NS(C)(=O)=O)OC3(C)C1C2` (stereo partly shown) [Example 32, Ms--(D)3-Pyridylalanine-Pro--boroPhe(m-CN)--C10 H16], the Ki in assay [1] and in assay [2] was below 500 nM each time.
Turning to `CC(C)(C)OC(=O)N[C@H](Cc1ccccn1)C(=O)N1CCCC1C(=O)NC(Cc1cccc(C#N)c1)B1OC2CC3CC(C3(C)C)C2(C)O1` (stereo partly shown) [Example 34, Boc--(D)2-Pyridylalanine-Pro--boroPhe(m-CN)--C10 H16], the inhibitory constant (Ki) in assay [3], in assay [1] and in assay [2] was below 500 nM in each case.
As for `CC(C)(C)OC(=O)NC(Cc1cccs1)C(=O)N1CCCC1C(=O)NC(Cc1cccc(C#N)c1)B1OC2CC3CC(C3(C)C)C2(C)O1` (stereo not shown) [Example 36, Boc--(D)2-Thienylalanine-Pro--boroPhe(m-CN)--C10 H16], the Ki in assay [3], in assay [1] and in assay [2] was below 500 nM each time.
Turning to `CC1(C)C2CC3OB(C(Cc4cccc(C#N)c4)NC(=O)[C@@H]4CCCN4C(=O)[C@H](N)Cc4ccccn4)OC3(C)C1C2` (stereo partly shown) [Example 37, H--(D)2-Pyridylalanine-Pro--boroPhe(m-CN)--C10 H16.HCl], the figures for the Ki in assay [3], in assay [1] and in assay [2] were below 500 nM, below 500 nM and below 50000 nM, respectively.
`CC1(C)C2CC3OB(C(Cc4cccc(C#N)c4)NC(=O)[C@@H]4CCCN4C(=O)[C@H](N)Cc4cccs4)OC3(C)C1C2` (stereo partly shown) [Example 38, H--(D)2-Thienylalanine-Pro--boroPhe(m-CN)--C10 H16.HCl]: the Ki in assay [3] was below 500 nM; in assay [1], below 500 nM; in assay [2], below 50000 nM.
As to `CC1(C)C2CC3OB(C(Cc4cccc(C#N)c4)NC(=O)[C@@H]4CCCN4C(=O)[C@@H](Cc4ccccn4)NS(C)(=O)=O)OC3(C)C1C2` (stereo partly shown) [Example 39, Ms--(D)2-Pyridylalanine-Pro--boroPhe(m-CN)--C10 H16], the Ki in assay [3], in assay [1] and in assay [2] was below 500 nM in each case.
As for `CC1(C)C2CC3OB(C(Cc4cccc(C#N)c4)NC(=O)C4CCCN4C(=O)C(Cc4cccs4)NS(C)(=O)=O)OC3(C)C1C2` (stereo not shown) [Example 40, Ms--(D)2-Thienylalanine-Pro--boroPhe(m-CN)--C10 H16], the inhibition constant (Ki) in assay [3], in assay [1] and in assay [2] was below 500 nM in each case.
As for `N=CNCCCC(NC(=O)C1CCCN1C(=O)CCc1ccccc1)B(O)O` (stereo not shown) [Example 48], the Ki is below 500 nM in assay [3], below 500 nM in assay [1] and below 50000 nM in assay [2].
On to `CS(=O)(=O)N[C@H](Cc1ccccc1)C(=O)N1CCC[C@H]1C(=O)N[C@@H](CCCNC=N)B(O)O.Cl` [Example 57, Ms--(D)Phe--Pro--boroOrn(CH=NH)--OH.HCl], for which the “anticoagulant response (at least doubling of activated partial thromboplastin time vs. pre-dose)” value in assay [4] (i.v. dosing) and in assay [4] (oral dosing) was “effective” in each case. This molecule also yielded a Ki in assay [1] below 500 nM.
Take `CS(=O)(=O)N[C@H](Cc1ccc(F)cc1)C(=O)N1CCC[C@H]1C(=O)N[C@@H](CCCNC=N)B(O)O.Cl` [Example 60, Ms--(D)Phe(4-fluoro)-Pro--boroOrn(CH=NH)--OH.HCl]: in assay [4] (oral dosing), the “anticoagulant response (at least doubling of activated partial thromboplastin time vs. pre-dose)” value is on record as “effective”. Further, the Ki in assay [1] was below 500 nM.
Take `Cl.N=CNCCCC(NC(=O)C1CCCN1C(=O)C(Cc1ccccc1)NC(=O)OCc1ccccc1)B(O)O` (stereo not shown) [Example 77, Z--(D)Phe--Pro--boroOrn(CH=NH)--OH.HCl]: the “anticoagulant response (at least doubling of activated partial thromboplastin time vs. pre-dose)” value in assay [4] (i.v. dosing) is on record as “effective”.
In the case of `CC1(C)C2CC3OB(C(CCCNC(N)=O)NC(=O)C4CCCN4C(=O)C(Cc4ccccc4)NS(=O)(=O)Cc4ccccc4)OC3(C)C1C2` (stereo not shown) [Example 110, PhCH2 SO2 --(D)Phe--Pro--boroOrn(CONH2)--C10 H16], the results for the Ki in assay [1] and in assay [2] were below 500 nM and below 50000 nM, respectively.
Regarding `CC(=O)N[C@H](Cc1ccccc1)C(=O)N1CCCC1C(=O)NC(CC1CCC(N)CC1)B1OC2CC3CC(C3(C)C)C2(C)O1` (stereo partly shown) [Example 124], the inhibition constant (Ki) in assay [1] is below 500 nM; in assay [2], below 50000 nM.
In the case of `CC(=O)NCCCCC(NC(=O)C1CCCN1C(=O)CCc1ccccc1)B1OC2CC3CC(C3(C)C)C2(C)O1` (stereo not shown) [Example 136, Hydrocinnamoyl-ProboroGly[(CH2)4 --NH--Acetyl]C10 H16], the results for the Ki in assay [3], in assay [1] and in assay [2] were below 50000 nM, below 500 nM and below 50000 nM, respectively.
In the case of `COCCCC(NC(=O)C1CCCN1C(=O)C(Cc1ccccc1)NCC(=O)O)B1OC2CC3CC(C3(C)C)C2(C)O1` (stereo not shown) [Example 140, HO2 CCH2 --(D)--Phe--Pro--boroGly[(CH2)3 --OCH3]--C10 H16], the inhibition constant Ki was below 50000 nM in assay [3] and below 500 nM in assay [1].
`COCCCC(NC(=O)[C@@H]1CCCN1C(=O)[C@@H](Cc1ccccc1)N(C)C)B1OC2CC3CC(C3(C)C)C2(C)O1` (stereo partly shown) [Example 141, N,N-dimethyl-(D)--Phe--Pro--boroGly[(CH2)3 --OCH3]--C10 H16]: the values for the inhibition constant (Ki) in assay [3], in assay [1] and in assay [2] were below 50000 nM, below 500 nM and below 50000 nM, respectively.
Turning to “Boc--(D)Phe--Pro--boroGly[(CH2)3 --ONH2 ]--OH.HCl [Example 102]”, the figures for the inhibition constant Ki in assay [3], in assay [1] and in assay [2] were below 500 nM, below 500 nM and below 50000 nM, respectively.
For “Boc--(D)Thiazolylalanine-Pro--boroPhe(m-CN)--C10 H16 [Example 27]”, the inhibition constant Ki in assay [1] and in assay [2] was below 500 nM in each case.
Turning to “Ms--(D)Phe--Pro--boroPhe(m-CN)--OH.HCl [Example 24]”, the inhibition constant Ki in assay [1] and in assay [2] was below 500 nM in each case.
In assay [1], “N-alpha-[boroOrn(CH=NH)--OH]-(2-trans benzylcarboxamido)-cyclopentane-1-carboxamide.HCl [Example 71]” showed an inhibition constant Ki below 500 nM.
Still for that read-out and setting: with “PhCH2 SO2 --(D)Phe--Pro--boroArg(CH3)--OH.HCl [Example 61]” the figure was below 500 nM; with “PhCH2 SO2 --(D)Phe--Pro--boroOrn(CH=NH)--OH.HCl [Example 62]”, below 500 nM; with “PhSO2 --(D)Phe--Pro--boroArg(CH3)--OH.HCl [Example 58]”, below 500 nM.
The molecule “PhSO2 --(D)Phe--Pro--boroOrn(CH=NH)--OH.HCl [Example 59]” came in with a Ki in assay [1] below 500 nM.
